The source of these data is patent publication US7250441B2, “Carbazole and cyclopentaindole derivatives to treat infection with Hepatitis C virus” (priority 2004, dated 2007).

What is called IC50 is the concentration needed to halve the response being measured.

T1 sequence (P26663 2420-2989): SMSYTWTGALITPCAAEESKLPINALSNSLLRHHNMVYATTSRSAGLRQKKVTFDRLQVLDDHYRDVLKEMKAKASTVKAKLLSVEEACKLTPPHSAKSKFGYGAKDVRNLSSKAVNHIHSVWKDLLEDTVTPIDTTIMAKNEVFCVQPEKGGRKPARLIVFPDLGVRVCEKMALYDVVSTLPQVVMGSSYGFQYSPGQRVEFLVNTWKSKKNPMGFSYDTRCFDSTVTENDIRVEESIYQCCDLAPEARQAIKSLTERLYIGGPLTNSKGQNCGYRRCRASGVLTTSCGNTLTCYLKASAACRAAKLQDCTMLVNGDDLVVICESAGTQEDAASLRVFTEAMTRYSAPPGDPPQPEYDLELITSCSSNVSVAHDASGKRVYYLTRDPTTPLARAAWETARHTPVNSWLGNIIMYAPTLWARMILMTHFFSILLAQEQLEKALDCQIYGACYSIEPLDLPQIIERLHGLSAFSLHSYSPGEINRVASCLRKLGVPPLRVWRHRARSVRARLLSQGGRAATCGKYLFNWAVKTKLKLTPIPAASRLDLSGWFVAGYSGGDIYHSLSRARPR

The test concerns the target T1, HCV RdRp NS5B d21BK (NS5B from the BK strain, genotype 1b) (Hepatitis C virus genotype 1b, UniProt P26663).
T1 construct: NS5B from the BK strain (genotype 1b) is expressed in E coli as a protein in which the 21 C-terminal amino acids are replaced; made in house; host or cells: E. coli
Description: Hepatitis C polymerase inhibition assay, radioactive nucleotide incorporation with filter capture. In kind it is biochemical. An excerpt:
The ability of the compounds of formula (I) to inhibit Hepatitis C Polymerase was established by the following experimental procedure.
NS5B from the BK strain (genotype 1b) is expressed in E coli as a protein in which the 21 C-terminal amino acids are replaced with a short linker and a hexahistidine tag ([…]). The purified protein is mixed with radioactive nucleotides and allowed to replicate a heteropolymeric RNA substrate, primed by an endogenous short hairpin, resulting in an approximately 760 nt product. The radioactive product is captured on a filter and quantitated after removal of the unincorporated nucleotides.
(1) Compounds 10 μl at 10 μg/ml in 15% dimethylsulfoxide (DMSO)
When starting from 100 μg/ml compound stock in 1% DMSO, 5 μl 30% DMSO is dispensed per well. Next, 5 μl compound (100 μg/ml) is dispensed per well.
When starting from 50 μg/ml compound stock in 15% DMSO, 10 μl compound is added per well.
20 μl enzyme mix is added into each well of the assay plate. The compound and enzyme are incubated at room temperature for 15 minutes.
(3) Template mix (prepared in advance)
A tube of RNA (5 μg/tube stored in 75% ethanol and 0.3 M sodium acetate) is microcentrifuged for 20 minutes at 4° C. (one tube supplies 1-1.5 plates). Ethanol is removed from the tube by gently inverting the tube. The RNA is vacuum dried and re-suspended in 1 ml of DEPC water in a tightly capped tube. To dissolve RNA, the RNA solution is incubated on ice for ˜60 minutes and gently vortexed. It is spun briefly to ensure all RNA solution at the bottom of the tube before opening cap. The RNA solution is then gently transferred into a 5 ml or larger tube. Another 3 ml of DEPC water is added to obtain a total of 4 ml of volume.
The following volumes of reagents are added:
20 μl template mix per reaction is added (i.e. 20 ng of pOF per reaction or ˜3 nM)
(4) The reaction is incubated at room temperature (22-25° C.) for 2 hours.
(5) The reaction is quenched by adding 50 μl of 170 mM EDTA.
Final concentration of EDTA is 85 mM.
(6) The filters of Millipore multiscreen assay plate is pre-wet by adding 200 μl of 0.5 M sodium phosphate buffer, pH 7.0 into each well. This stands at room temperature for 2-3 minutes.
(7) The multiscreen filter plate is placed onto a Millipore Manifold under vacuum to allow buffer to flow through. After the vacuum is turned off, 80 μl of the reaction product is transferred into each well of the filter plate. This stands for 2-3 minutes prior to turning on the vacuum again to filter the reaction product.
(8) The vacuum is then removed. 200 μl of 0.5 M sodium phosphate buffer is added, pH 7.0, into each well. The vacuum is then turned on.
Step (8) is repeated three more times.
(9) Next the polypropylene bottom is removed, and the filter is spot dried with a paper towel. The filter plate is air-dried on a bench for 1 hour before adding 40 μl Super Mix scintillant. The top of the plate is sealed with a tape and the plate is placed into a Packard carrier or micro-beta carrier.
(10) The plate is counted using a Packard Topcount or micro-beta counter. Count (for example using Program 10) for ^33P in Top count or ^33P program in micro-beta.
The percent inhibition is calculated after background subtraction as a percent reduction of activity relative to the positive control (average value of the plate excluding the negative controls). For the primary screen hits were chosen as showing >75% inhibition.
See, Ferrari et al. 1999. J. Virology 73:1649-1654: “Characterization of soluble Hepatitis C virus RNA-dependent RNA polymerase expressed in E. coli and Takamizawa et al 1991” and J. Virology 65:1105-1113: “Structure and characterization of Hepatitis C virus genome isolated from human carriers,” both reference are hereby incorporated by reference.
As for `CCCCC1(C(=O)O)CCc2c1[nH]c1c(Cl)ccc(Cl)c21` (centres unmarked) [Example 2, 3-Butyl-5,8-dichloro-1,2,3,4-tetrahydro-cyclopenta[b]indole-3-carboxylic acid], the IC50 turned out to be 1900 nM. Under `CCCC1(C(=O)O)CCCc2c1[nH]c1c(Cl)ccc(C(F)(F)F)c21` (centres unmarked) [Example 27, 8-Chloro-1-propyl-5-trifluoromethyl-2,3,4,9-tetrahydro-1H-carbazole-1-carboxylic acid] stands 5800 nM; under `C=CCC1(CC(=O)O)CCCc2c1[nH]c1c(F)ccc(F)c21` (centres unmarked) [Example 29, (1-Allyl-5,8-difluoro-2,3,4,9-tetrahydro-1H-carbazol-1-yl)-acetic acid], 32000 nM; under `CCCCC1(C(=O)O)CCc2c1[nH]c1c(C)cc(F)c(Br)c21` (centres unmarked) [Example 6, 8-Bromo-3-butyl-7-fluoro-5-methyl-1,2,3,4-tetrahydro-cyclopenta[b]indole-3-carboxylic acid], 2100 nM. Take `CCCC1(C(=O)O)CCc2c1[nH]c1c(Cl)ccc(Cl)c21` (centres unmarked) [Example 3, 5,8-Dichloro-3-propyl-1,2,3,4-tetrahydro-cyclopenta[b]indole-3-carboxylic acid]: the IC50 turned out to be 550 nM.
